According to patent publication US8772500B2, “TRPV3 modulators” (AbbVie Inc., priority 2011, dated 2014):

What was measured:
[1] = In vitro rat microsomal stability assay; type: in vitro ADME, rat (Sprague-Dawley)
Summary of the method: (§1)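 Incubations ran at 37 °C in NADPH-supplemented rat (Sprague-Dawley) or human hepatic microsomes.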

human TRPV3 = target: T1, human TRPV3 (Homo sapiens, UniProt Q8NET8); experiment: In vitro antagonism of recombinant human TRPV3 activation (FLIPR Tetra calcium assay, 2-APB as agonist); type: cell-based; settings: HEK293 cells stably expressing human TRPV3; 2-APB 80 μM; range class; read-out: IC50 (reported range)
T1 construct: expressed in transfected cells
T1 sequence (Q8NET8 1-790): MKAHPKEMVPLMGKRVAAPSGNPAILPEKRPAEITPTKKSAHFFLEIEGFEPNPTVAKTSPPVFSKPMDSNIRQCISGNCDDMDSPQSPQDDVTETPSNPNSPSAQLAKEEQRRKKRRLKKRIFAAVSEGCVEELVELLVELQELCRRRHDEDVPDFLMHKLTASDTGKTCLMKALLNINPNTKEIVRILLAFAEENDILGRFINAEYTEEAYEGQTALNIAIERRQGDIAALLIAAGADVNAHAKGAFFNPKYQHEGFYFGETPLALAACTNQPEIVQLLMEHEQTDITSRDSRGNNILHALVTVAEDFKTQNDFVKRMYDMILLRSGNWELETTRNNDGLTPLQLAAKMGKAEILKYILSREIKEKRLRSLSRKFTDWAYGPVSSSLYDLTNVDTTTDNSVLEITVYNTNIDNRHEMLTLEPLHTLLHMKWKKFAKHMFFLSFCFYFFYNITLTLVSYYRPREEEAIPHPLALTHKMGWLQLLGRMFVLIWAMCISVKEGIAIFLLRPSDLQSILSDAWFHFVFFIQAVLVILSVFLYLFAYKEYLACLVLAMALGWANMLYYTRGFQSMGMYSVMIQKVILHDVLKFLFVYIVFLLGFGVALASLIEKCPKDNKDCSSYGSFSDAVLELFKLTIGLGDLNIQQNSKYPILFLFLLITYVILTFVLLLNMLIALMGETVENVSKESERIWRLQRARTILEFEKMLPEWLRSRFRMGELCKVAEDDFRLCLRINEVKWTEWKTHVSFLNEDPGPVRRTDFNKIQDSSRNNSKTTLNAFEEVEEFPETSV
Summary of the method: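 Readout is FLIPR fluorescence, max minus min as percent of uninhibited 2-APB response, giving IC50 (usually mean of ≥2 runs). Stable human TRPV3 HEK293 cells, Calcium-4 dye-loaded, got test compound then, three minutes later, 80 μM 2-APB (EC80); run length 10 min.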

[2] = In vitro human microsomal stability assay; type: in vitro ADME
Summary of the method: as §1

[3] = 0.5 μM substrate, 0.25 mg/mL microsomal protein, pH 7.4, 37° C., NADPH, 30 minutes
[4] = Sprague-Dawley, rat, 0.5 h, 0.5 μM, pH 7.4

Compound | IC50 (human TRPV3) | RAT MICROSOMAL STABILITY (% REMAINING AFTER 30 MINUTES) [1, 4] | HUMAN MICROSOMAL STABILITY (% REMAINING AFTER 30 MINUTES) ([2]; human, 0.5 h, 0.5 μM, pH 7.4) | RAT MICROSOMAL STABILITY (% REMAINING AFTER 30 MINUTES) [1, 3] | HUMAN MICROSOMAL STABILITY (% REMAINING AFTER 30 MINUTES) [2, 3]
Cl.O[C@H](c1ccccn1)C1(c2ccc(Cl)c(Cl)c2)CC(F)(F)C1 [Example 111, (S)-[1-(3,4-dichlorophenyl)-3,3-difluorocyclobutyl](pyridin-2-yl)methanol hydrochloride] | 50 to 500 nM | – | – | 23% | 52%
OC(c1ccccn1)C1(c2ccc(C(F)(F)F)cn2)CCC1 (stereo not drawn) [Example 115, pyridin-2-yl{1-[5-(trifluoromethyl)pyridin-2-yl]cyclobutyl}methanol] | 5100 to 20000 nM | 81% | >85% | – | –
O=C1CC(c2ccc(Cl)c(Cl)c2)([C@H](O)c2ccccn2)C1 [Example 117, 3-(3,4-dichlorophenyl)-3-[(S)-hydroxy(pyridin-2-yl)methyl]cyclobutanone] | 1100 to 5000 nM | 50% | 18% | – | –
O[C@@H](c1ccccn1)C1(c2cc(C(F)(F)F)ccn2)CC(F)(F)C1 [Example 125, (R)-{3,3-difluoro-1-[4-(trifluoromethyl)pyridin-2-yl]cyclobutyl}(pyridin-2-yl)methanol] | 5100 to 20000 nM | 8.8% | 53% | – | –
Nc1cccnc1C(O)C1(c2ccc(C(F)(F)F)cc2)CCC1 (stereo not drawn) [Example 127, (3-aminopyridin-2-yl){1-[4-(trifluoromethyl)phenyl]cyclobutyl}methanol] | 5100 to 20000 nM | 1.1% | 51% | – | –
Nc1cccnc1C(O)C1(c2ccc(Cl)c(Cl)c2)CCC1 (stereo not drawn) [Example 130, (3-aminopyridin-2-yl) [1-(3,4-dichlorophenyl)cyclobutyl]methanol] | 1100 to 5000 nM | <0.01% | 4.0% | – | –
OC1CC(c2ccc(OC(F)(F)F)cc2)(C(O)c2ccccn2)C1 [Example 132, (trans)-3-[(S)-hydroxy(pyridin-2-yl)methyl]-3-[4-(trifluoromethoxy)phenyl]-cyclobutanol] | 5100 to 20000 nM | 72% | 81% | – | –
OC(c1ccccn1)C1(c2ccc(C(F)(F)F)cn2)CC(F)(F)C1 (stereo not drawn) [Example 137, {3,3-difluoro-1-[5-(trifluoromethyl)pyridin-2-yl]cyclobutyl}(pyridin-2-yl)-methanol] | 1100 to 5000 nM | >85% | 77% | – | –
OC(c1ccccn1)C1(c2ccc(Cl)c(C(F)(F)F)c2)CC(F)(F)C1 (stereo not drawn) [Example 138, {1-[4-chloro-3-(trifluoromethyl)phenyl]-3,3-difluorocyclobutyl}(pyridin-2-yl)methanol] | 501 to 1000 nM | 18% | 41% | – | –
OC(c1ccccn1)C1(c2ccc(F)c(C(F)(F)F)c2)CC(F)(F)C1 (stereo not drawn) [Example 139, {3,3-difluoro-1-[4-fluoro-3-(trifluoromethyl)phenyl]cyclobutyl}(pyridin-2-yl)methanol] | 501 to 1000 nM | 26% | 41% | – | –
CN1CCC(c2ccc(OC(F)(F)F)cc2)(C(O)c2ccccn2)CC1 (stereo not drawn) [Example 145, {1-methyl-4-[4-(trifluoromethoxy)phenyl]piperidin-4-yl}(pyridin-2-yl)-methanol] | 1100 to 5000 nM | – | – | 42% | 68%
CN1CCC(c2cccc(OC(F)(F)F)c2)(C(O)c2ccccn2)CC1 (stereo not drawn) [Example 146, {1-methyl-4-[3-(trifluoromethoxy)phenyl]piperidin-4-yl}(pyridin-2-yl)-methanol] | 5100 to 20000 nM | – | – | 8.9% | 84%
OC(c1ccccn1)C1(c2cccc(OC(F)(F)F)c2)CCNCC1 (stereo not drawn) [Example 148, pyridin-2-yl{4-[3-(trifluoromethoxy)phenyl]piperidin-4-yl}methanol] | 1100 to 5000 nM | – | – | 53% | >85%
CN1CCC(c2ccccc2OC(F)(F)F)(C(O)c2ccccn2)CC1 (stereo not drawn) [Example 149, {1-methyl-4-[2-(trifluoromethoxy)phenyl]piperidin-4-yl}(pyridin-2-yl)-methanol] | 5100 to 20000 nM | – | – | 62% | >85%

The next lines start with results.

IC50 (human TRPV3) | RAT MICROSOMAL STABILITY (% REMAINING AFTER 30 MINUTES) [1, 4] | HUMAN MICROSOMAL STABILITY (% REMAINING AFTER 30 MINUTES) ([2]; human, 0.5 h, 0.5 μM, pH 7.4) | Compound | RAT MICROSOMAL STABILITY (% REMAINING AFTER 30 MINUTES) [1, 3] | HUMAN MICROSOMAL STABILITY (% REMAINING AFTER 30 MINUTES) [2, 3]
50 to 500 nM | 75% | 75% | OC(c1ccccn1)C1(c2ccc(OC(F)(F)F)cc2)CC(F)(F)C1 (stereo not drawn) [Example 112, {3,3-difluoro-1-[4-(trifluoromethoxy)phenyl]cyclobutyl}(pyridin-2-yl)-methanol] | – | –
50 to 500 nM | 18% | 24% | OC(c1ccccn1)C1(c2cccc(C(F)(F)F)c2)CC(F)(F)C1 (stereo not drawn) [Example 113, {3,3-difluoro-1-[3-(trifluoromethyl)phenyl]cyclobutyl}(pyridin-2-yl)-methanol] | – | –
50 to 500 nM | 11% | 6.9% | OC(c1ccccn1)C1(c2cccc(OC(F)(F)F)c2)CC(F)(F)C1 (stereo not drawn) [Example 114, {3,3-difluoro-1-[3-(trifluoromethoxy)phenyl]cyclobutyl}(pyridin-2-yl)-methanol] | – | –
501 to 1000 nM | 25% | 37% | OC(c1ccccn1)C1(c2cc(C(F)(F)F)ccn2)CCC1 (stereo not drawn) [Example 116, pyridin-2-yl{1-[4-(trifluoromethyl)pyridin-2-yl]cyclobutyl}methanol] | – | –
50 to 500 nM | 11% | 21% | O[C@H](c1ccccn1)C1(c2cc(C(F)(F)F)ccn2)CCC1 [Example 123, (S)-pyridin-2-yl{1-[4-(trifluoromethyl)pyridin-2-yl]cyclobutyl}methanol] | – | –
501 to 1000 nM | 7.7% | 21% | O[C@H](c1ccccn1)C1(c2cc(C(F)(F)F)ccn2)CC(F)(F)C1 [Example 126, (S)-{3,3-difluoro-1-[4-(trifluoromethyl)pyridin-2-yl]cyclobutyl}(pyridin-2-yl)methanol] | – | –
50 to 500 nM | 67% | 59% | O[C@H](c1ccccn1)C1(c2ccc(OC(F)(F)F)cc2)CC(F)(F)C1 [Example 128, (S)-{3,3-difluoro-1-[4-(trifluoromethoxy)phenyl]cyclobutyl}(pyridin-2-yl)-methanol] | – | –
50 to 500 nM | 0.01% | 46% | COC1(OC)CC(c2ccc(OC(F)(F)F)cc2)(C(O)c2ccccn2)C1 (stereo not drawn) [Example 129, {3,3-dimethoxy-1-[4-(trifluoromethoxy)phenyl]cyclobutyl}(pyridin-2-yl)-methanol] | – | –
50 to 500 nM | 61% | 73% | OC(c1ccccn1)C1(c2ccc(C(F)(F)F)cc2)CC(F)(F)C1 (stereo not drawn) [Example 133, {3,3-difluoro-1-[4-(trifluoromethyl)phenyl]cyclobutyl}(pyridin-2-yl)-methanol] | – | –
501 to 1000 nM | 3.4% | 33% | O[C@H](c1ccccn1)[C@@]1(c2ccc(Cl)c(Cl)c2)CCO1 [Example 135, (R)-[(2S)-2-(3,4-dichlorophenyl)oxetan-2-yl](pyridin-2-yl)methanol] | – | –
50 to 500 nM | 9.5% | 24% | O[C@H](c1ccccn1)[C@]1(c2ccc(Cl)c(Cl)c2)CCO1 [Example 136, (R)-[(2R)-2-(3,4-dichlorophenyl)oxetan-2-yl](pyridin-2-yl)methanol] | – | –
